# Assay results taken from patent US20130138221A1, “METHODS AND COMPOSITIONS FOR IMPROVING IMPLANT OSSEOINTEGRATION” (Novartis AG, priority 2010, published 2013).
# Tests used:
# [1] = system: bone resorption; details: zoledronic acid versus etidronate; reference 22; cited from earlier work
# [2] = system: estrogen-deprived (OVX) Wistar rats with titanium screw implant in the left tibia; assay: biomechanical removal torque testing of titanium screw implants in tibia of ovariectomized rats; format: in vivo, rat; details: 4 weeks post-implantation, implant coated with 8.5 μg zoledronate and/or Antibody 1 100 mg/kg iv. weekly, FIG. 2
# Description: Titanium screw type implants (3 mm length, 1-1.5 mm diameter, self-cutting) were prepared by either (1) sand blasting and acid etching with no further coating, or (2) sand blasted and acid etched, then coated with 8.5 μg zoledronate. The coating was carried out by warming the implants and then dip coating with a zolendronate stearate salt and then allowing to dry at 80° C. as described for alendronic acid coating in reference 36. The […] and drying cycle was carried out 3 times. Skeletally mature virgin Wistar rats (6.5-month-old, Harlan laboratories, Switzerland) were estrogen-deprived by ovariectomy (OVX) under narcosis. Bone mineral density loss was confirmed in the proximal tibia metaphysis (4.5 mm distal from proximal end) three months post-ovariectomy (compared to intact controls) by peripheral quantitative computed tomography as described previously. The titanium screws were implanted approximately 3 mm distal to the proximal end of the left tibia under narcosis. Animals received a sand-blasted acid edged titanium implant with or without zoledronic acid coating which were prepared as above. Animals were distributed into the following groups [n=16/group and time point]: 1. OVX group receiving control implant 2. […] Intact group receiving control implant Animals were sacrificed 2 and 4 weeks post-implantation. […]
Molecule,potency relative to etidronate [1],increase in removal torque versus OVX control implant (group 1) [2] [%]
"O=P(O)(O)C(O)(Cn1ccnc1)P(=O)(O)O [zoledronic acid, 1-hydroxy-2-(imidazol-1-yl)ethane-1,1-diphosphonic acid]","10,000 times",
"Antibody 1: anti-sclerostin antibody with VH domain SEQ ID NO: 1 and VL domain SEQ ID NO: 2, disclosed in WO09047356 (antibody, V domains shown, Antibody Vh; Antibody Vl) VH: QVQLVESGGGLVQPGGSLRLSCAASGFTFRSHWLSWVRQAPGKGLEWVSNINYDGSSTYYADSVKGRFTISRDNSKNTLYLQMNSLRAEDTAVYYCARDTYLHFDYWGQGTLVTVSS VL: DIALTQPASVSGSPGQSITISCTGTSSDVGDINDVSWYQQHPGKAPKLMIYDVNNRPSGVSNRFSGSKSGNTASLTISGLQAEDEADYYCQSYAGSYLSEVFGGGTKLTVLGQ",,32
